From patent US12129509B2, “Apparatus, systems, and methods for determining the susceptibility of infectious agents to anti-infectives” (priority 2018, dated 2024)
≈ marks a conversion by molar mass, not a printed value.

What was measured:
[1] = test system: E. coli of an unknown strain; assay: pH and ORP growth curves of E. coli with Ciprofloxacin in diagnostic device 102 (FIGS. 7A and 7B); format: cell-based
Source text: FIGS. 7A and 7B illustrate pH growth curves and ORP growth curves of E. coli in the presence of various concentrations of the antibiotic Ciprofloxacin, respectively. The growth curves were generated using a computing device 158 coupled to a parameter analyzer 156 coupled to the diagnostic device 102. Similar types of growth curves can also be generated using the computing device 158 coupled to the parameter analyzer 156 coupled to the diagnostic device 202.
An inoculum solution 110 comprising E. coli of an unknown strain (e.g., a positive blood culture (PBC) diluted to 5×10^5 colony-forming units (CFU)/mL of E. coli in Mueller Hinton (MH) broth) was introduced to the sample receiving space 112 of the diagnostic device 102. The inoculum solution 110 was allowed to fill the plurality wells 120 of the diagnostic device 102 including the growth control wells 134 and a number of active electrode wells 136. A water immiscible liquid 152 was then introduced into the sample receiving space 112 to seal the wells 120 and the entire diagnostic device 102 was incubated at an elevated temperature.
The computing device 158 generated the growth curves based on changes in the solution characteristics (e.g., changes in pH of the pH electrode wells 126 and changes in ORP of the ORP electrode wells 128) of the inoculum solution 110 within the growth control wells 134 and the various active electrode wells 136. The growth control wells 134 comprised at least one pH electrode well 126 and at least one ORP electrode well 128 devoid of the antibiotic. The active electrode wells 136 comprised dried Ciprofloxacin at concentrations of 2 μg/mL, 4 μg/mL, 8 μg/mL, 16 μg/mL, and 32 μg/mL.
This curve pattern or shape can be attributed to cellular activity undertaken by the active E. coli within the growth control wells 134. FIGS. 7A and 7B also illustrate that the three growth curves generated from measurements of the inoculum solution 110 within the active electrode wells 136 comprising 2 μg/mL and 4 μg/mL of Ciprofloxacin mimicked and followed the growth pattern of the inoculum solution 110 within the growth control wells 134.

[2] = test system: E. coli of an unknown strain; assay: pH growth curves of E. coli with Levofloxacin in diagnostic device 102 (FIG. 6); format: cell-based; settings: Escherichia coli, E. coli diluted in Mueller Hinton broth, wells with 1, 2 and 4 μg/mL, read-out: minimum inhibitory concentration (MIC)
Source text: FIG. 6 illustrates pH growth curves of E. coli in the presence of various concentrations of the antibiotic Levofloxacin. The growth curves were generated using a computing device 158 coupled to a parameter analyzer 156 coupled to the diagnostic device 102. Similar types of growth curves can also be generated using the computing device 158 coupled to the parameter analyzer 156 coupled to the diagnostic device 202. An inoculum solution 110 comprising E. coli of an unknown strain (diluted in Mueller Hinton (MH) broth) was introduced to the sample receiving space 112 of the diagnostic device 102. The inoculum solution 110 was allowed to fill the plurality wells 120 of the diagnostic device 102 including the growth control wells 134 and a number of active electrode wells 136. A water immiscible liquid 152 was then introduced into the sample receiving space 112 to seal the wells 120 and the entire diagnostic device 102 was incubated at an elevated temperature. The computing device 158 generated the growth curves based on a change in the pH of the inoculum solution 110 within a growth control well 134 and three active electrode wells 136. The growth control well 134 comprised a pH electrode 130 within the well and was devoid of the antibiotic. […]

| MIC [2] | Structure (SMILES) | susceptibility of the strain at the concentration ([1]; Ciprofloxacin 2 μg/mL and 4 μg/mL, curves followed growth control) | susceptibility of the strain at the concentration ([1]; Ciprofloxacin 8 μg/mL, delayed change in pH and ORP) | growth of E. coli in active electrode wells ([1]; Ciprofloxacin 16 μg/mL and 32 μg/mL, curves substantially flat lines) | susceptibility of the strain (overall) ([1]; based on MIC from pH and ORP growth curves) |
| --- | --- | --- | --- | --- | --- |
| – | O=C(O)c1cn(C2CC2)c2cc(N3CCNCC3)c(F)cc2c1=O [Ciprofloxacin] | resistant or not susceptible | intermediate susceptibility | no noticeable growth | generally resistant |
| 1 µg/mL (≈ 2.77 µM) | C[C@H]1COc2c(N3CCN(C)CC3)c(F)cc3c(=O)c(C(=O)O)cn1c23 [Levofloxacin] | – | – | – | – |
